Results from paper PMC10184128 (Journal of Medicinal Chemistry, 2023).

How the values were obtained:
human Nurr1 = human Nurr1 (Homo sapiens, UniProt P43354); details: for EC50(Nurr1): Gal4 hybrid reporter gene assay, mean ± S.E.M., n ≥ 3, inactive = at 10 μM; for activation of Gal4-Nurr1 (hybrid assay): all compounds tested at 10 μM, n = 3
NOR1 (NR4A3) = biological target: T1, NOR1 (NR4A3) (Homo sapiens, UniProt Q92570); test: cell-based
T1 sequence (Q92570 394-623 limits assumed): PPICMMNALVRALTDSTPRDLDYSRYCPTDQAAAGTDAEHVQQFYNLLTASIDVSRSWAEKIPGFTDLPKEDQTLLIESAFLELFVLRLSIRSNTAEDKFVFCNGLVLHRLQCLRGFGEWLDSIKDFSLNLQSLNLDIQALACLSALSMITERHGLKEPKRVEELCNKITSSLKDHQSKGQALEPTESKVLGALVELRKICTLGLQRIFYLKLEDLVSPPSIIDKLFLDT

[1] = biological target: full-length human Nurr1 (NBRE) (Homo sapiens, UniProt P43354); details: all compounds tested at 10 μM, n = 3
Chain of full-length human Nurr1 (NBRE) (P43354 whole entry): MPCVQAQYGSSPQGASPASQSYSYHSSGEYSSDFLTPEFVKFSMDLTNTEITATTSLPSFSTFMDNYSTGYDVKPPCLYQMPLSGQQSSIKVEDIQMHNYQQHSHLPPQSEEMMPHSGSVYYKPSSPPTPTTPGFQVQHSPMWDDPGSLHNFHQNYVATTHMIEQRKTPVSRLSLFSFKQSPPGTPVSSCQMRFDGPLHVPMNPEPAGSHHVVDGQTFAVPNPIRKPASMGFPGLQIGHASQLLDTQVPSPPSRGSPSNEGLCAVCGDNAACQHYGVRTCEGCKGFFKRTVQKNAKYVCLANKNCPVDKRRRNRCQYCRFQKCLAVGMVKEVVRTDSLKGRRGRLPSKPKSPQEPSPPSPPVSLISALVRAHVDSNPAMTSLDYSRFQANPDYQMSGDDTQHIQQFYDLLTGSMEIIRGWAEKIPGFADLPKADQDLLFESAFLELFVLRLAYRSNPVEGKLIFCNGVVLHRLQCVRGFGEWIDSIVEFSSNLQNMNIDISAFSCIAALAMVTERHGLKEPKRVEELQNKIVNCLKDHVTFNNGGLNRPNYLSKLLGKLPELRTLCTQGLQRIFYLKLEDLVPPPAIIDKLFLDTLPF

Chain of human Nurr1 (P43354 360-595 limits assumed): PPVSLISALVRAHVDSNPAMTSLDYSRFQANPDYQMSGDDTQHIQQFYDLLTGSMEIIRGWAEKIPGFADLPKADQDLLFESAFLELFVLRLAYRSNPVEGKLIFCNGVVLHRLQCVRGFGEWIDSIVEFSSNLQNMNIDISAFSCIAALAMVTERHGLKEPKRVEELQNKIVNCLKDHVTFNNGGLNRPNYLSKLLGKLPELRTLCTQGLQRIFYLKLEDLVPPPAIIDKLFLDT

Structure (SMILES) | EC50(Nurr1) (human Nurr1) | EC50 (NOR1 (NR4A3)) | activation of full-length Nurr1 (NBRE) [1] | activation of Gal4-Nurr1 (hybrid assay) (human Nurr1)
[2H]C([2H])([2H])Oc1cccc(C23CCC(NC(=O)C4=C(C(=O)O)CCC4)(CC2)CC3)c1 [compound 8] | inactive (10 μM) |  |  | 
[2H]C([2H])([2H])Oc1cccc(-c2ccc(N(C)C(=O)C3=C(C(=O)O)CCC3)c(F)c2)c1 [compound 9] | inactive (10 μM) |  |  | 
C#CCOc1cccc(-c2ccc(NC(=O)C3=C(C(=O)O)CCC3)c(F)c2)c1 [compound 29, 2-[(3-Fluoro-3′-prop-2-yn-1-yloxy[1,1′-biphenyl]-4-yl)carbamoyl]cyclopent-1-ene-1-carboxylic acid] |  | 1300 ± 300 nM |  | 
COc1cccc(-c2cc(F)c(Nc3ncccc3C(=O)O)c(F)c2)c1 [farudodstat] |  |  | No other tested DHODH inhibitor caused activation | No other tested DHODH inhibitor caused activation
Cc1ccccc1-c1ccc(-c2cc(C(=O)O)c3c(c2)nnn3C)cc1 [AG-636] |  |  | No other tested DHODH inhibitor caused activation | No other tested DHODH inhibitor caused activation
O=C(Nc1c(F)c(F)c(-c2ccccc2)c(F)c1F)c1c(=O)[nH]n2ccccc12 [MEDS433] |  |  | No other tested DHODH inhibitor caused activation | No other tested DHODH inhibitor caused activation
